The record followed here is ChEMBL document CHEMBL1201862, “PubChem BioAssay data set” (2004).

Among the test systems are U-251; HL-60; HOP-92; UACC-62; DU-145; A498; SNB-19; UO-31; A549; CCRF-CEM; HCC 2998; SK-MEL-5; CAKI-1; NCI/ADR-RES; HOP-62; EKVX; M14; SNB-75; NCI-H522; TK-10.
Holding throughout (test): DTP human tumour cell line panel, 48 h

The structures appear in SMILES notation.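 Exposure lasted 48 hours, with cells grown in 96-well plates and compounds tested at five concentrations. Here, GI50 denotes the concentration required for 50% inhibition of growth.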 The source made the active and inactive calls. Cut-off read from the data, not from the text of the source: active = GI50 up to about 1.1 µM and inactive = higher.

A word on the GI50: it is the concentration at which growth is held to half of that of the control. In the case of `O=S1(=O)NN=C(NCc2ccc(F)cc2)c2ccccc21`, the GI50 with U-251 was 33 µM (inactive); in the experiment on HL-60, 13.1 µM (inactive); with HOP-92, 24.7 µM (inactive); with UACC-62 it was 34.7 µM (inactive); in the experiment on DU-145 it was > 100 µM (inactive); in the experiment with A498 it was > 100 µM (inactive). Besides, the GI50 in the experiment on SNB-19 was 39.3 µM (inactive); in the experiment with UO-31 it was > 100 µM (inactive); in the experiment with A549 it was > 90.2 µM (inactive); in the experiment on CCRF-CEM, 23.7 µM (inactive); in the experiment on HCC 2998 it was > 67.6 µM (inactive); in the experiment with SK-MEL-5, > 68.2 µM (inactive). Besides, the GI50 in the experiment on CAKI-1 is > 89.5 µM (inactive); in the experiment on NCI/ADR-RES, 65.2 µM (inactive); with HOP-62, 39.6 µM (inactive); with EKVX it was > 100 µM (inactive); with M14, > 50.9 µM (inactive).

As for `COc1ccc(/C=C2\N=C(N3CCCCC3)NC2=O)cc1`, the GI50 was 37.2 µM (inactive) with SNB-75; > 100 µM (inactive) with U-251; > 100 µM (inactive) in the experiment on HL-60; 57.4 µM (inactive) in the experiment on NCI-H522; > 100 µM (inactive) in the experiment on HOP-92; > 100 µM (inactive) in the experiment on UACC-62. In addition, the GI50 in the experiment with DU-145 was > 100 µM (inactive); with SNB-19 it was > 100 µM (inactive); with UO-31, 48.3 µM (inactive); in the experiment with A549, > 100 µM (inactive); in the experiment on CCRF-CEM, > 100 µM (inactive); with HCC 2998, > 100 µM (inactive). The GI50 with TK-10, with CAKI-1, in the experiment with NCI/ADR-RES, in the experiment on HOP-62, in the experiment on EKVX and in the experiment with M14 was > 100 µM (inactive) each time.

As for `Cc1ccc(O)c(C2=NNC(c3cccc(Cl)c3)C2)c1` (stereo unspecified), the GI50 in the experiment with U-251 was 33.9 µM (inactive); in the experiment on HL-60 it was 41.7 µM (inactive); with NCI-H522, 16 µM (inactive); in the experiment on HOP-92, 18.5 µM (inactive); in the experiment on UACC-62, 39.7 µM (inactive); in the experiment on DU-145, 86.1 µM (inactive). Also, the GI50 with SNB-19 is 14.4 µM (inactive); with UO-31, 28.1 µM (inactive); with A549, 34.8 µM (inactive); with CCRF-CEM, 31.8 µM (inactive); with TK-10, 58.3 µM (inactive); with SK-MEL-5, 54 µM (inactive). Besides, the GI50 with CAKI-1 was 36.8 µM (inactive); with NCI/ADR-RES, 34.5 µM (inactive); in the experiment with HOP-62, 79.8 µM (inactive); in the experiment with EKVX it was 37 µM (inactive); with M14, 87.5 µM (inactive).

Take `O=C(O)c1ccc(C(c2c(O)oc3ccccc3c2=O)c2c(O)oc3ccccc3c2=O)cc1`: the GI50 is > 100 µM (inactive) in the experiment on U-251; 0.0397 µM (active) with HL-60; 2.82 µM (inactive) in the experiment with HOP-92; > 100 µM (inactive) with UACC-62; > 100 µM (inactive) in the experiment on DU-145; 2.92 µM (inactive) with A498. Besides, the GI50 in the experiment on SNB-19 is > 100 µM (inactive); in the experiment with UO-31, 14.2 µM (inactive); in the experiment on A549, > 100 µM (inactive); in the experiment on CCRF-CEM, 25.2 µM (inactive); in the experiment on HCC 2998 it was 29.3 µM (inactive); in the experiment on SK-MEL-5, > 100 µM (inactive). Further, the GI50 with CAKI-1 is > 100 µM (inactive); in the experiment with NCI/ADR-RES, > 100 µM (inactive); in the experiment with HOP-62, 43 µM (inactive); in the experiment on M14 it was 43.1 µM (inactive).

As for `CC(=O)c1cc2ccccc2[n+]([O-])c1N`, the GI50 with U-251, with HL-60, in the experiment with NCI-H522, with HOP-92, with UACC-62 and in the experiment on DU-145 was > 100 µM (inactive) in each case. The GI50 in the experiment with A498, with A549, in the experiment with CCRF-CEM, in the experiment on HCC 2998, with TK-10 and in the experiment with SK-MEL-5 was > 100 µM (inactive) each time. Further, the GI50 in the experiment on CAKI-1, in the experiment on NCI/ADR-RES, in the experiment on HOP-62, in the experiment on EKVX and in the experiment on M14 was > 100 µM (inactive) each time.

Take `Cc1cc(=O)n2nc(CN3CCCCC3)sc2n1`: the GI50 in the experiment on SNB-75 is 54.5 µM (inactive); with U-251, > 100 µM (inactive); in the experiment with HL-60, > 100 µM (inactive); in the experiment with NCI-H522, > 100 µM (inactive); in the experiment with HOP-92 it was > 100 µM (inactive); with UACC-62 it was > 100 µM (inactive). Further, the GI50 in the experiment on DU-145, with SNB-19, in the experiment on UO-31, in the experiment with A549, with CCRF-CEM and in the experiment on HCC 2998 was > 100 µM (inactive) each time. For the same molecule, the GI50 in the experiment with TK-10, in the experiment on SK-MEL-5, in the experiment on CAKI-1, in the experiment with NCI/ADR-RES, with HOP-62 and with EKVX was > 100 µM (inactive) in each case. Besides, the GI50 in the experiment with M14 is > 100 µM (inactive).

As for `COc1cccc(C2c3cc4c(cc3OC(N3CCCC3)C2C)OCO4)c1` (stereo unspecified), the GI50 with SNB-75 is 4.99 µM (inactive); in the experiment with NCI-H522, 3.92 µM (inactive); in the experiment on HOP-92, 2.83 µM (inactive); in the experiment with UACC-62 it was 4.66 µM (inactive); in the experiment with DU-145, 16.3 µM (inactive); with SNB-19 it was 11.4 µM (inactive). Besides, the GI50 was 12.1 µM (inactive) in the experiment on UO-31; 9.2 µM (inactive) in the experiment with A549; 0.513 µM (active) in the experiment with CCRF-CEM; 11.9 µM (inactive) in the experiment on HCC 2998; 18.6 µM (inactive) with TK-10; 5.53 µM (inactive) with SK-MEL-5. The GI50 in the experiment on CAKI-1 was 2.12 µM (inactive); with NCI/ADR-RES, 4.53 µM (inactive); in the experiment with HOP-62, 4.63 µM (inactive); in the experiment on EKVX it was 21.3 µM (inactive); in the experiment with M14 it was 3.96 µM (inactive).

Regarding `COc1ccc(NC2=CC(=O)C(=O)c3ccccc32)nn1`, the GI50 with U-251 was 1.52 µM (inactive); in the experiment on HL-60 it was 0.273 µM (active); with NCI-H522 it was 0.492 µM (active); in the experiment with UACC-62, 1.34 µM (inactive); with DU-145 it was 1.45 µM (inactive); in the experiment with A498 it was 1.73 µM (inactive). For the same molecule, the GI50 in the experiment with SNB-19 was 2.9 µM (inactive); in the experiment on UO-31 it was 2.5 µM (inactive); in the experiment on A549, 3.1 µM (inactive); with CCRF-CEM, 2.92 µM (inactive); in the experiment with HCC 2998, 6.68 µM (inactive); in the experiment with TK-10 it was 3.56 µM (inactive). In addition, the GI50 in the experiment on SK-MEL-5 was 0.643 µM (active); in the experiment with CAKI-1, 2.19 µM (inactive); in the experiment with NCI/ADR-RES, 0.514 µM (active); with EKVX, 3.1 µM (inactive); with M14, 0.281 µM (active).

For the molecule `Brc1ccc(C2(N3CCCCC3)CCCCC2)s1`, the GI50 in the experiment with U-251 was 33.1 µM (inactive); with HL-60, 19.4 µM (inactive); in the experiment with NCI-H522, 27.3 µM (inactive); with HOP-92, 19.7 µM (inactive); in the experiment on UACC-62, 35.5 µM (inactive); with DU-145, 56.6 µM (inactive). Moreover, the GI50 with A498 was 66.7 µM (inactive); in the experiment with SNB-19, 73.1 µM (inactive); in the experiment on UO-31, 30.8 µM (inactive); with A549 it was 39 µM (inactive); with CCRF-CEM it was 18.3 µM (inactive); with HCC 2998, 15.7 µM (inactive). For the same molecule, the GI50 in the experiment with TK-10 was 37.5 µM (inactive); in the experiment on SK-MEL-5, 0.561 µM (active); in the experiment with CAKI-1, > 100 µM (inactive); in the experiment with HOP-62, 57.5 µM (inactive); in the experiment with EKVX, 76.6 µM (inactive); in the experiment with M14, 24.4 µM (inactive).

Consider `CC(C)(/C=N\O)NO`, for which the GI50 in the experiment on U-251, in the experiment on HL-60, in the experiment with NCI-H522, in the experiment with HOP-92, in the experiment on DU-145 and in the experiment with SNB-19 was > 10 µM (inactive) each time. Besides, the GI50 with UO-31, in the experiment on A549, with CCRF-CEM, in the experiment on HCC 2998, in the experiment with TK-10 and in the experiment with CAKI-1 was > 10 µM (inactive) in each case. In addition, the GI50 in the experiment with NCI/ADR-RES, in the experiment with HOP-62, in the experiment on EKVX and in the experiment with M14 was > 10 µM (inactive) throughout.

In the case of `O=C(NCCCc1cn[nH]c(=O)n1)c1cccc2nc3ccccc3nc12`, the GI50 in the experiment on U-251 was 36.5 µM (inactive); in the experiment on HL-60, > 100 µM (inactive); with HOP-92, 75 µM (inactive); with UACC-62, > 100 µM (inactive); in the experiment on DU-145 it was 63 µM (inactive); in the experiment with A498 it was > 100 µM (inactive). For the same molecule, the GI50 was > 100 µM (inactive) with SNB-19; > 100 µM (inactive) in the experiment on A549; > 100 µM (inactive) with CCRF-CEM; > 100 µM (inactive) in the experiment with HCC 2998; 36.5 µM (inactive) in the experiment with TK-10; > 100 µM (inactive) with SK-MEL-5. For the same molecule, the GI50 in the experiment with CAKI-1 is > 100 µM (inactive); in the experiment with NCI/ADR-RES, > 100 µM (inactive); with HOP-62 it was 47.8 µM (inactive); in the experiment on EKVX, > 100 µM (inactive); in the experiment on M14 it was > 100 µM (inactive).

For `O=C1c2c(ccc3c2CCCC3)CC1Cc1ccc2c(c1)CCCC2` (stereo unspecified), the GI50 was 4.68 µM (inactive) with SNB-75; 67 µM (inactive) in the experiment with U-251; 5.46 µM (inactive) in the experiment on HL-60; 22 µM (inactive) in the experiment on HOP-92; 48 µM (inactive) in the experiment with UACC-62; 83.4 µM (inactive) with DU-145. Moreover, the GI50 with A498 was > 100 µM (inactive); in the experiment with SNB-19, > 100 µM (inactive); in the experiment on UO-31, > 100 µM (inactive); in the experiment with A549, 41.5 µM (inactive); in the experiment on CCRF-CEM, 21.3 µM (inactive); in the experiment with HCC 2998 it was 34.6 µM (inactive). Also, the GI50 was > 100 µM (inactive) with TK-10; 22.6 µM (inactive) with SK-MEL-5; 87.7 µM (inactive) in the experiment with HOP-62; 45.5 µM (inactive) in the experiment on EKVX; 35.7 µM (inactive) in the experiment on M14.
